# Source: patent publication US7645802B2 (Biovail Laboratories International SRL., priority 2005, dated 2010)
# Counter-ions that a name gives are not always drawn. Marks after values point to notes of the source that are not given here.
# Experiments:
# [1] = Moisture content and pH of aqueous solutions of bupropion salts; assay type: physicochemical
# [2] = system: chemically-induced seizures (induced by pentylenetetrazole) in mice; settings: cited from earlier work
# [3] = stability of polymorphic forms I, II, III by PXRD under ICH conditions; assay type: physicochemical; settings: hydrobromide
# Method: It is well known that organic molecules can crystallize into solid forms. Moreover the same organic compound may assume different crystalline arrangements in solid form, depending on the conditions under which the crystal product is formed. This phenomenon is commonly known as polymorphism. A study was undertaken to explore the polymorphic forms of bupropion hydrobromide. The crystal forms of the products obtained in this study were determined by powder X-ray diffraction (PXRD). A RIGAKU miniflex instrument (Radiation Cu Koc, generator 30 KV, filter Ni) was used to obtain the PXRD data.
# The three polymorphic forms were subjected to stability testing. Samples of the polymorphic forms were subjected to ICH conditions (40° C., 75% R.H.) and PXRD data was obtained at 3 months and 6 months. […] Samples of the polymorphic forms II and III were tested after 1 month under the same accelerated stability conditions.
# Samples of bupropion HBr form I were subjected to the conditions for the accelerated stability study as described in Example 10 and the shelf life stability study as described in Example 11.
# 10 g of bupropion HBr form I were dissolved in a mixture of 170 ml of acetone and 7 ml of water. The mixture was brought to reflux with dissolution of the solid. The solution was then cooled to room temperature. After one night the precipitate formed was filtered and dried at 40° C. under vacuum (30 mmHg) for 12 hours. 2.4 g of bupropion HBr form II were obtained. […] The crystalline form was checked after maintaining the product under these conditions for 1 month.
# The mixture was brought to reflux obtaining complete dissolution of the solid. The solution was then cooled to room temperature without stirring and left in these conditions for 18 hours. The resulting crystalline solid was then filtered and dried under vacuum (30 mmHg) at 50° C. for 4 hours. 11.2 g of bupropion HBr form III were obtained. A sample of the product was prepared for stability testing by sealing the product in polyethylene bags, which in turn were placed in aluminium bags containing silica and sealed, and placed in the stability chamber in ICH conditions (40° C./75% R.H.). The crystalline form was checked after maintaining the product in these conditions for 1 month.
# [4] = moisture content by KF and pH (aq. 0.5%) of bupropion salts; assay type: physicochemical
# Method: The eight salts were first evaluated by HPLC, KF, pH and DSC for purity, water content, aqueous pH and possible polymorphs.
# (§1) The salts were analyzed by DSC (at 10° C./min from 30° C. up to 400° C.) and the pH (aq. 0.5%), and the moisture content by KF were also measured. The TGA was performed on the HCl, maleate, tosylate and HBr salts.
# [5] = forced degradation stability study of bupropion salts in vials, 40 degrees C./75% RH, HPLC assay and impurities
# [6] = TGA of bupropion salts; assay type: physicochemical; settings: for residue (TGA): at 400° C.; for weight lost (TGA): from room temperature to 100° C.
# Method: 2-5 mg of each salt was placed in an aluminium pan and covered with its lid. DSC was run for each sample at the rate of 10 degrees C./min (for HBr salt, different rates were used to investigate for polymorphs) from 30 degrees C. to 400 degrees C. TGA was also used for each of the HBr, HCl, maleate and tosylate salts.
# as §1
# [7] = After re crystallization (R&D), tested after 1 day
# [8] = ICH conditions 40° C./75% R.H., 1 month
# [9] = after re-crystallization in acetonitrile/hexane or acetonitrile/EtOAc
molecule,measurement,setting,value
CC(NC(C)(C)C)C(=O)c1cccc(Cl)c1.Cl (stereo not drawn) [Bup-HCl],moisture content KF,[1]; Original (Initial APIs),0.0%
same,pH (aq. 0.5%),[1]; Original (Initial APIs),5.90
CC(NC(C)(C)C)C(=O)c1cccc(Cl)c1.O=C(O)/C=C\C(=O)O (stereo not drawn) [Bup-Maleate],moisture content KF,[1]; Original (Initial APIs),0.10%
same,pH (aq. 0.5%),[1]; Original (Initial APIs),4.29
CC(NC(C)(C)C)C(=O)c1cccc(Cl)c1.CC(NC(C)(C)C)C(=O)c1cccc(Cl)c1.O=C(O)C(O)C(O)C(=O)O (stereo not drawn) [Bup-Tartrate neutral],moisture content KF,[1]; Original (Initial APIs),0.14%
same,pH (aq. 0.5%),[1]; Original (Initial APIs),3.62
CC(NC(C)(C)C)C(=O)c1cccc(Cl)c1.Cc1ccc(S(=O)(=O)O)cc1 (stereo not drawn) [Bup-Tosylate],moisture content KF,"[1]; After re crystallization (R&D), tested after 2 Months",0.18%
same,moisture content KF,[1]; [7],023%
same,pH (aq. 0.5%),[1]; [7],5.88
same,moisture content KF,[1]; Original (Initial APIs),1.71* %
same,pH (aq. 0.5%),[1]; Original (Initial APIs),5.56
Br [bromide],ED50 / therapeutic dose level against pentylenetetrazole-induced seizures,[2],910 mg/kg
"CC(NC(C)(C)C)C(=O)c1cccc(Cl)c1 (stereo not drawn) [bupropion HBr form I, bupropion hydrobromide]",PXRD profile after storage (polymorph stability),"[3]; 40° C., 75% R.H. (b1144 also 25° C./60% RH), 3 months and 6 months",gave the same results
same,PXRD profile after storage (polymorph stability),"[3]; 40° C., 75% R.H. (b1144 also 25° C./60% RH), 3 months and 6 months, listed as polymorphic form I",same PXRD profile
"CC(NC(C)(C)C)C(=O)c1cccc(Cl)c1 (stereo not drawn) [bupropion HBr form II, bupropion hydrobromide]",PXRD profile after storage (polymorph stability),[3]; [8],still in form II
same,PXRD profile after storage (polymorph stability),"[3]; ICH conditions 40° C./75% R.H., 1 month, listed as Polymorphic form II",no change in the PXRD profile
"CC(NC(C)(C)C)C(=O)c1cccc(Cl)c1 (stereo not drawn) [bupropion HBr form III, bupropion hydrobromide]",PXRD profile after storage (polymorph stability),[3]; [8],not stable in this form under these conditions
same,PXRD profile after storage (polymorph stability),"[3]; ICH conditions 40° C./75% R.H., 1 month, listed as form III",conversion to form II
[Br-].[Na+] [sodium bromide],ED50 / therapeutic dose level against pentylenetetrazole-induced seizures,[2],910 mg/kg
Bupropion Fumarate,moisture content KF,[4]; salt as received,0.09%
same,pH of the aqueous solution of 0.5%,[4]; salt as received,3.84
same,"In IPA/EtOH, 3-CBZ: order of impurity content",[5],maleate > HBr > HCl > Fumarate
same,"In IPA/EtOH, 852U77: order of impurity content",[5],fumarate > HBr ≈HCl ≈maleate ≈tosylate
same,"In IPA/EtOH, Total imp.: order of impurity content",[5],fumarate > maleate > HBr > HCl > tosylate
same,"In water, 3-CBZ: order of impurity content",[5],HCl > HBr≈maleate≈fumarate
same,"In water, 852U77: order of impurity content",[5],fumarate > HBr > maleate > HCl
same,"In water, Total imp.: order of impurity content",[5],fumarate > HBr > HCl > tosylate > maleate
Bupropion maleate,moisture content KF,[4]; salt as received,0.10%
same,pH of the aqueous solution of 0.5%,[4]; salt as received,4.29
same,thermally stable to at least (TGA),[6],at least 150 °C
same,residue (TGA),[6],minimal residues
same,weight lost (TGA),[6],1.3%
same,"In IPA/EtOH, 3-CBZ: order of impurity content",[5],maleate > HBr > HCl > Fumarate
same,"In IPA/EtOH, 852U77: order of impurity content",[5],fumarate > HBr ≈HCl ≈maleate ≈tosylate
same,"In IPA/EtOH, Total imp.: order of impurity content",[5],fumarate > maleate > HBr > HCl > tosylate
same,"In water, 3-CBZ: order of impurity content",[5],HCl > HBr≈maleate≈fumarate
same,"In water, 852U77: order of impurity content",[5],fumarate > HBr > maleate > HCl
same,"In water, Total imp.: order of impurity content",[5],fumarate > HBr > HCl > tosylate > maleate
Bupropion tosylate,moisture content KF,[4]; [9],0.23%
same,pH,[4]; [9],5.88
same,moisture content KF,[4]; re-crystallized sample retested after two months,0.18%
same,moisture content KF,[4]; salt as received,1.71%
same,pH of the aqueous solution of 0.5%,[4]; salt as received,5.56
same,residue (TGA),[6],10.3%
same,weight lost (TGA),[6],1.3%
same,"In IPA/EtOH, 852U77: order of impurity content",[5],fumarate > HBr ≈HCl ≈maleate ≈tosylate
same,"In IPA/EtOH, Total imp.: order of impurity content",[5],fumarate > maleate > HBr > HCl > tosylate
same,"In water, Total imp.: order of impurity content",[5],fumarate > HBr > HCl > tosylate > maleate
